The values below come from ChEMBL document CHEMBL4732091, “Design, synthesis and biological evaluation of novel thiosemicarbazone-indole derivatives targeting prostate cancer cells” (Eur J Med Chem, 2021).

Calls of active or inactive are those of the source. The calls are words filed in the database; no cut-off is given here.

In test [1] the test system is PC-3. As to the kind of experiment: Activation of MAPK signaling in human PC-3 cells assessed as increase in phosphorylated p38 (Thr 180/Tyr 182) at 125 to 500 nM measured by Western blot assay. As to conditions: filed as activator, dose 125-500 nM. It is filed as cell-based.
Test [2] relates to PC-3. As to the kind of experiment: Induction of cell cycle arrest in human PC-3 cells assessed as accumulation of cells in G1/S phase at 250 nM measured after 48 hrs by propidium iodide staining based flowcytometry method (reference value: 19.23%). It is filed as functional.
Test [3] deals with DU-145. As to the kind of experiment: Activation of MAPK signaling in human DU-145 cells assessed as increase in phosphorylated p38 (Thr 180/Tyr 182) at 125 to 500 nM measured by Western blot assay. It is filed as cell-based. As to conditions: filed as activator, dose 125-500 nM.
In test [4] the test system is PC-3. As to the kind of experiment: Induction of apoptosis in human PC-3 cells assessed as late apoptotic cells at 50 nM measured after 72 hrs by Annexin V-FITC/propidium iodide staining based flow cytometry method (reference value: 1.01 %). It is filed as functional.
Test [5] relates to PC-3. As to the kind of experiment: Induction of apoptosis in human PC-3 cells assessed as late apoptotic cells at 100 nM measured after 72 hrs by Annexin V-FITC/propidium iodide staining based flow cytometry method (reference value: 1.01 %). It is filed as functional.
The subject of test [6] is DU-145. As to the kind of experiment: Antiproliferative activity against human DU-145 cells assessed as inhibition of cell proliferation measured after 24 to 72 hrs by MTT assay. It is filed as functional, cell-based. The settings on record: dose 0.156-20 µM, time 24-72 hrs.
Test [7] deals with PC-3. As to the kind of experiment: Induction of ROS generation in human PC-3 cells assessed as increase in intracellular ROS level at 250 nM pretreated with NAC followed by compound treatment measured after 48 hrs by DCFH-DA staining based flowcytometry method. It is filed as functional, cell-based.
Test [8] has as its system DU-145. As to the kind of experiment: Induction of ROS generation in human DU-145 cells assessed as intracellular ROS level at 3 uM measured after 48 hrs by DCFH-DA staining based flowcytometry method (reference value: 52 %). It is filed as functional.
Test [9] relates to PC-3. As to the kind of experiment: Induction of apoptosis in human PC-3 cells assessed as increase in PARP expression at 25 to 100 nM measured by Western blot assay. The settings on record: dose 25-100 nM. It is filed as functional, cell-based.
Test [10] has as its system PC-3. As to the kind of experiment: Induction of apoptosis in human PC-3 cells assessed as necrotic cells at 100 nM measured after 72 hrs by Annexin V-FITC/propidium iodide staining based flow cytometry method (reference value: 1.2 %). It is filed as functional.
Test [11] has as its system PC-3. As to the kind of experiment: Induction of apoptosis in human PC-3 cells assessed as viable cells at 50 nM measured after 72 hrs by Annexin V-FITC/propidium iodide staining based flow cytometry method (reference value: 97.2 %). It is filed as functional. As to conditions: read-out: Activity.
Test [12] deals with DU-145. As to the kind of experiment: Induction of apoptosis in human DU-145 cells assessed as nuclear fragmentation at 0.5 to 2 uM measured after 72 hrs by Hoechst staining based fluorescence method. It is filed as functional, cell-based. The settings on record: dose 0.5-2 µM.
In test [13] the test system is DU-145. As to the kind of experiment: Induction of apoptosis in human DU-145 cells assessed as early apoptotic cells at 1 uM measured after 72 hrs by Annexin V-FITC/propidium iodide staining based flow cytometry method (reference value: 0.835 %). It is filed as functional.
The test system of test [14] is DU-145. As to the kind of experiment: Induction of apoptosis in human DU-145 cells assessed as formation of apoptotic bodies at 0.5 to 2 uM measured after 72 hrs by Hoechst staining based fluorescence method. The settings on record: dose 0.5-2 µM. It is filed as functional, cell-based.
A further test deals with ECa-109 cell line. As to the kind of experiment: Antiproliferative activity against human ECa-109 cell line cells assessed as inhibition of cell proliferation measured after 72 hrs by MTT assay. It is filed as functional, cell-based. The settings on record: ECa-109, 72 h.
Test [15] has as its system PC-3. As to the kind of experiment: Induction of apoptosis in human PC-3 cells assessed as increase in p53 expression at 25 to 100 nM measured by Western blot assay. It is filed as functional, cell-based. As to conditions: dose 25-100 nM.
Test [16] deals with PC-3. As to the kind of experiment: Activation of MAPK signaling in human PC-3 cells assessed as increase in phosphorylated JNK (Thr 183/Tyr 185) at 125 to 500 nM measured by Western blot assay. It is filed as cell-based. The settings on record: filed as activator, dose 125-500 nM.
The test system of test [17] is DU-145. As to the kind of experiment: Induction of ROS generation in human DU-145 cells assessed as intracellular ROS level at 3 uM pretreated with NAC followed by compound treatment measured after 48 hrs by DCFH-DA staining based flowcytometry method (reference value: 75.1 %). It is filed as functional.
The subject of test [18] is PC-3. As to the kind of experiment: Induction of ROS generation in human PC-3 cells assessed as intracellular ROS level at 500 nM measured after 48 hrs by DCFH-DA staining based flowcytometry method (reference value: 55.2 %). It is filed as functional.

Regarding `Cc1ccc(/C=N/NC(=S)Nc2ccc(C(=O)NCCc3c(C)[nH]c4ccccc34)cc2)nc1`, the outcome with PC-3 [1], with DU-145 [3], with PC-3 [9], in the test on DU-145 [12], in the test on DU-145 [14] and with PC-3 [15] was Active. Besides, the outcome in the test on PC-3 [16] was Active. Moreover, the Activity in the test on PC-3 [2] is 29.04%; with PC-3 [4], 33.5%; in the test with PC-3 [5], 56.2%; in the test with DU-145 [8] it was 75.1%; with PC-3 [10], 9.14%; with DU-145 [13], 10.6%. Moreover, the Activity with DU-145 [17] amounted to 60.1%; in the test with PC-3 [18], 98.9%. In the test with DU-145 [6], the inhibition result is “Dose-dependent effect”. For the same compound, the outcome in the test with PC-3 [7] was inactive. For the same compound, the viability at 0.05 µM in the test with PC-3 [11] was found to be 64%. The IC50 in the test with ECa-109 cell line turned out to be 4.94 µM.
